For the experiment, the system named is γ-secretase. Description: Western blot of nectin-1 C-terminal fragments in hippocampal neurons overexpressing flag tagged nectin-1, treated with γ-secretase inhibitor. Format: cell-based, rat. The conditions noted are these: 0.5 and 1 μM inhibitor, 24 hrs, transduced hippocampal neurons at 21 DIV. How it is done: Hippocampal neurons were plated at a density of 1.3×10^5 cells. The neurons at 21 DIV were transduced with an adenovirus vector expressing a C-terminal flag tagged nectin-1 for 24 hrs at a MOI of 50. Neurons were treated without (FIG. 3, lanes 1 and 2) or with 0.5 μM (FIG. 3, lanes 3 and 4) and 1 μM γ-secretase inhibitor X (FIG. 3, lanes 5 and 6) for 24 hrs. These cells were harvested in reducing sample buffer and analyzed on a 10% SDS-PAGE gel.
Technical difficulties preclude detection of endogenous C-terminal fragments, particularly the 35 and 24 kDa forms due to low expression levels in neurons. To circumvent this, C-terminal Flag tagged nectin-1 was over expressed in neurons as described above.
(In general: In western blotting, separated proteins are transferred to a membrane and probed.)

For the molecule `CC(C)C[C@H](NC(=O)[C@H](Cc1ccccc1)C[C@@H](O)[C@H](Cc1ccccc1)NC(=O)OC(C)(C)C)C(=O)N[C@@H](Cc1ccccc1)C(N)=O` [γ-secretase inhibitor X], the “density of the 24 kDa nectin-1 band” value is on record as “reduced”; the “density of the 37, 34 and 30 kDa nectin-1 bands” value is “increased”.

(Values after patent publication US20100285597A1, “DETECTION OF FRAGMENTS OF NECTIN-1 FOR THE DIAGNOSIS OF ALZHEIMER'S DISEASE” (UNIVERSITY OF ROCHESTER, priority 2007, published 2010).)
